The assay deals with human SPR (Homo sapiens (Human), UniProt P35270). Nature of the assay: Evaluation Example 2: Measurement of human SPR inhibitory activity (seven concentrations, sepiapterin absorbance at 420 nm). Type of assay: biochemical. The essentials:
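Reactions ran 240 min at room temperature in 100 mM Tris-HCl pH 7.5 with 0.01% BSA. They contained tag-cleaved, E. coli-expressed full-length human SPR (diluted to 150 ng/mL), seven compound concentrations from 0.14 to 100 nM, and sepiapterin/NADPH added as a 120 μM/160 μM solution. Inhibition was calculated from sepiapterin absorbance at 420 nm.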

Setting [1] is: Evaluation Example 2, seven concentrations 0.14 nM to 100 nM, 240 minutes at room temperature, read-out: IC50.

Structures can show the parent of a compound that is named as a salt. Where two headings read alike, the source gives them in different places.

Chain of human SPR (P35270 whole entry): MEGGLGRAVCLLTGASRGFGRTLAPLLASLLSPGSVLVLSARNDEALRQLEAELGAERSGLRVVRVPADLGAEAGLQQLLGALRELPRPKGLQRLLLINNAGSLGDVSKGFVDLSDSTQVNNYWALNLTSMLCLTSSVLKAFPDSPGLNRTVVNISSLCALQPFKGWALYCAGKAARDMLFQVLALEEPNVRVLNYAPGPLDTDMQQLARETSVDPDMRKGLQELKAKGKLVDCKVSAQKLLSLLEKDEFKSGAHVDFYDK

`CC(C)Cn1c(=O)c(C(=O)NC2CC2)c(O)n2nc(/N=C/N(C)C)cc12` [Synthesis Example 363, (E)-N-Cyclopropyl-2-(((dimethylamino)methylene)amino)-7-hydroxy-4-isobutyl-5-oxo-4,5-dihydropyrazolo[1,5-a]pyrimidine-6-carboxamide hydrochloride]: the IC50 under setting [1] is 1.61 nM. Still for that read-out and setting: with `CC(C)Cn1c(=O)c(C(=O)NC2CC2)c(O)n2nc(N)c(/C=C/C3CCOCC3)c12` [Synthesis Example 434, (E)-2-Amino-N-cyclopropyl-7-hydroxy-4-isobutyl-5-oxo-3-(2-(tetrahydro-2H-pyran-4-yl)vinyl)-4,5-dihydropyrazolo[1,5-a]pyrimidine-6-carboxamide hydrochloride] the figure was 1.4 nM; with `Cc1cnc(Nc2cc3n(CC(C)(C)C)c(=O)c(C(=O)NC4CC4)c(O)n3n2)cn1` [Synthesis Example 333, N-Cyclopropyl-7-hydroxy-2-((5-methylpyrazin-2-yl)amino)-4-neopentyl-5-oxo-4,5-dihydropyrazolo[1,5-a]pyrimidine-6-carboxamide], 1.86 nM. In the case of `COC(C)Cn1c(=O)c(C(=O)NC2CC2)c(O)n2ncc(/C=C/C(=O)N3CCOCC3)c12` (single isomer, unassigned) [Synthesis Example 385, (E)-N-Cyclopropyl-7-hydroxy-4-(2-methoxypropyl)-3-(3-morpholino-3-oxoprop-1-en-1-yl)-5-oxo-4,5-dihydropyrazolo[1,5-a]pyrimidine-6-carboxamide], under setting [1], the IC50 was 0.83 nM. Still for that read-out and setting: under `Cc1nn2c(O)c(C(=O)NC3CC3)c(=O)n(CC(C)C)c2c1/C=C/C(=O)N1CCC[C@@H]1C` [compound 580, (S,E)-N-Cyclopropyl-7-hydroxy-4-isobutyl-2-methyl-3-(3-(2-methylpyrrolidin-1-yl)-3-oxoprop-1-en-1-yl)-5-oxo-4,5-dihydropyrazolo[1,5-a]pyrimidine-6-carboxamide] stands 0.96 nM; under `CC(C)Cn1c(=O)c(C(=O)NC2CC2)c(O)n2ncc(/C=C/C(=O)N3C[C@H]4C[C@@H]3CO4)c12` [compound 538, 3-((E)-3-((1R,4R)-2-Oxa-5-azabicyclo[2.2.1]heptan-5-yl)-3-oxoprop-1-en-1-yl)-N-cyclopropyl-7-hydroxy-4-isobutyl-5-oxo-4,5-dihydropyrazolo[1,5-a]pyrimidine-6-carboxamide], 0.69 nM; under `Cc1nn2c(O)c(C(=O)NC3CC3)c(=O)n(CC(C)C)c2c1/C=C/C(=O)N1CCCC1` [compound 564, (E)-N-Cyclopropyl-7-hydroxy-4-isobutyl-2-methyl-5-oxo-3-(3-oxo-3-(pyrrolidin-1-yl)prop-1-en-1-yl)-4,5-dihydropyrazolo[1,5-a]pyrimidine-6-carboxamide], 0.95 nM.

As to `Cc1nn2c(O)c(C(=O)NC3CC3)c(=O)n(CC(C)C)c2c1/C=C/C(=O)N1CCOc2cnccc21` [Synthesis Example 675, (E)-N-Cyclopropyl-3-(3-(2,3-dihydro-1H-pyrido[3,4-b][1,4]oxazin-1-yl)-3-oxoprop-1-en-1-yl)-7-hydroxy-4-isobutyl-2-methyl-5-oxo-4,5-dihydropyrazolo[1,5-a]pyrimidine-6-carboxamide], under setting [1], the IC50 came out at 0.99 nM.

Turning to `CC(C)(C)Cn1c(=O)c(C(=O)NC2CC2)c(O)n2nc(-c3cnc(N)nc3)cc12` [Synthesis Example 289, 2-(2-Aminopyrimidin-5-yl)-N-cyclopropyl-7-hydroxy-4-neopentyl-5-oxo-4,5-dihydropyrazolo[1,5-a]pyrimidine-6-carboxamide], under setting [1], the IC50 was found to be 2.05 nM. The same measure, in the same setting: with `CC(C)(C)Cn1c(=O)c(C(=O)NC2CC2)c(O)n2nc(-c3cccnc3C(F)(F)F)cc12` [Synthesis Example 284, N-Cyclopropyl-7-hydroxy-4-neopentyl-5-oxo-2-(2-(trifluoromethyl)pyridin-3-yl)-4,5-dihydropyrazolo[1,5-a]pyrimidine-6-carboxamide] the figure was 3.93 nM; with `CC(=O)N1CCC2(CCCN2C(=O)/C=C/c2c(C)nn3c(O)c(C(=O)NC4CC4)c(=O)n(CC(C)C)c23)CC1` [Synthesis Example 665, (E)-3-(3-(8-Acetyl-1,8-diazaspiro[4.5]decan-1-yl)-3-oxoprop-1-en-1-yl)-N-cyclopropyl-7-hydroxy-4-isobutyl-2-methyl-5-oxo-4,5-dihydropyrazolo[1,5-a]pyrimidine-6-carboxamide], 0.92 nM; with `Cc1nn2c(O)c(C(=O)NC3CC3)c(=O)n(CC(C)C)c2c1/C=C/C(=O)N1CCC(C(F)F)C1` (stereo not shown) [Synthesis Example 622, (E)-N-Cyclopropyl-3-(3-(3-(difluoromethyl)pyrrolidin-1-yl)-3-oxoprop-1-en-1-yl)-7-hydroxy-4-isobutyl-2-methyl-5-oxo-4,5-dihydropyrazolo[1,5-a]pyrimidine-6-carboxamide], 1.03 nM. Same read-out and setting: with `CC(C)Cn1c(=O)c(C(=O)NC2CC2)c(O)n2ncc(/C=C/C(=O)N3CCC(C(N)=O)CC3)c12` [compound 477, (E)-3-(3-(4-Carbamoylpiperidin-1-yl)-3-oxoprop-1-en-1-yl)-N-cyclopropyl-7-hydroxy-4-isobutyl-5-oxo-4,5-dihydropyrazolo[1,5-a]pyrimidine-6-carboxamide] the figure was 0.64 nM; with `C/C(=C\c1cnn2c(O)c(C(=O)NC3CC3)c(=O)n(CC(C)C)c12)C(=O)N1CCC(F)(F)C1` [Synthesis Example 256, (E)-N-Cyclopropyl-3-(3-(3,3-difluoropyrrolidin-1-yl)-2-methyl-3-oxoprop-1-en-1-yl)-7-hydroxy-4-isobutyl-5-oxo-4,5-dihydropyrazolo[1,5-a]pyrimidine-6-carboxamide], 0.97 nM. On the same count and under the same terms, with `CC(C)(C)Cn1c(=O)c(C(=O)NC2CC2)c(O)n2nc3c(c12)CN(C1CCC(F)(F)CC1)C(=O)N3` [Synthesis Example 407, N-Cyclopropyl-3-(4,4-difluorocyclohexyl)-8-hydroxy-5-neopentyl-2,6-dioxo-1,2,3,4,5,6-hexahydropyrazolo[1,5-a:3,4-d′]dipyrimidine-7-carboxamide] the figure was 1.23 nM; with `CC(C)Cn1c(=O)c(C(=O)NC2CC2)c(O)n2ncc(/C=C/C(=O)N3CCC(OC4CCOCC4)CC3)c12` [compound 478, (E)-N-Cyclopropyl-7-hydroxy-4-isobutyl-5-oxo-3-(3-oxo-3-(4-((tetrahydro-2H-pyran-4-yl)oxy)piperidin-1-yl)prop-1-en-1-yl)-4,5-dihydropyrazolo[1,5-a]pyrimidine-6-carboxamide], 0.95 nM; with `CC(C)Cn1c(=O)c(C(=O)NC2CC2)c(O)n2ncc(/C=C/C(=O)N3CCCOCC3)c12` [compound 461, (E)-3-(3-(1,4-Oxazepan-4-yl)-3-oxoprop-1-en-1-yl)-N-cyclopropyl-7-hydroxy-4-isobutyl-5-oxo-4,5-dihydropyrazolo[1,5-a]pyrimidine-6-carboxamide], 0.75 nM. For the compound `CC(C)Cn1c(=O)c(C(=O)NC2CC2)c(O)n2ncc(/C=C/C(=O)N3CCC(C(C)(F)F)CC3)c12` [compound 469], the IC50 under setting [1] was 0.89 nM. As for `CC(C)(C)Cn1c(=O)c(C(=O)NC2CC2)c(O)n2nc(Nc3cnc(C(=O)NCC(F)(F)F)cn3)cc12` [Synthesis Example 352, N-Cyclopropyl-7-hydroxy-4-neopentyl-5-oxo-2-((5-((2,2,2-trifluoroethyl)carbamoyl)pyrazin-2-yl)amino)-4,5-dihydropyrazolo[1,5-a]pyrimidine-6-carboxamide], under setting [1], the IC50 turned out to be 1.04 nM. Regarding `CN(C)C(=O)c1cn[nH]c1-c1cc2n(CC(C)(C)C)c(=O)c(C(=O)NC3CC3)c(O)n2n1` [Synthesis Example 314, N-Cyclopropyl-2-(4-(dimethylcarbamoyl)-1H-pyrazol-5-yl)-7-hydroxy-4-neopentyl-5-oxo-4,5-dihydropyrazolo[1,5-a]pyrimidine-6-carboxamide hydrochloride], the IC50 under setting [1] came out at 0.93 nM.

Turning to `COCCN(C)C(=O)/C=C/c1cnn2c(O)c(C(=O)NC3CC3)c(=O)n(CC(C)C)c12` [compound 519, (E)-N-Cyclopropyl-7-hydroxy-4-isobutyl-3-(3-((2-methoxyethyl)(methyl)amino)-3-oxoprop-1-en-1-yl)-5-oxo-4,5-dihydropyrazolo[1,5-a]pyrimidine-6-carboxamide], under setting [1], the IC50 stood at 0.68 nM. The same measure, in the same setting: under `Cc1nccc(Nc2cc3n(CC(C)(C)C)c(=O)c(C(=O)NC4CC4)c(O)n3n2)n1` [Synthesis Example 334, N-Cyclopropyl-7-hydroxy-2-((2-methylpyrimidin-4-yl)amino)-4-neopentyl-5-oxo-4,5-dihydropyrazolo[1,5-a]pyrimidine-6-carboxamide] stands 1 nM.

Regarding `CC(C)Cn1c(=O)c(C(=O)NC2CC2)c(O)n2ncc(/C=C/C(=O)N3CCC(OC(F)(F)F)CC3)c12` [compound 465, (E)-N-Cyclopropyl-7-hydroxy-4-isobutyl-5-oxo-3-(3-oxo-3-(4-(trifluoromethoxy)piperidin-1-yl)prop-1-en-1-yl)-4,5-dihydropyrazolo[1,5-a]pyrimidine-6-carboxamide], the IC50 under setting [1] was found to be 1.76 nM. `CC(C)Cn1c(=O)c(C(=O)NC2CC2)c(O)n2ncc(/C=C/C(=O)N(C)Cc3cccnc3)c12` [Synthesis Example 712, (E)-N-Cyclopropyl-7-hydroxy-4-isobutyl-3-(3-(methyl(pyridin-3-ylmethyl)amino)-3-oxoprop-1-en-1-yl)-5-oxo-4,5-dihydropyrazolo[1,5-a]pyrimidine-6-carboxamide]: the IC50 (sepiapterin absorbance, Table 41, read-out: concentration at 50% inhibition of human SPR (IC50)) worked out at 1.19 nM. Consider `CC(C)Cn1c(=O)c(C(=O)NC2CC2)c(O)n2ncc(/C=C/C(=O)N3CC[C@@H](C(N)=O)C3)c12` [compound 513, (R,E)-3-(3-(3-Carbamoylpyrrolidin-1-yl)-3-oxoprop-1-en-1-yl)-N-cyclopropyl-7-hydroxy-4-isobutyl-5-oxo-4,5-dihydropyrazolo[1,5-a]pyrimidine-6-carboxamide], for which the IC50 under setting [1] is 0.75 nM.

(Values after patent US20240092784A1, “CONDENSED HETEROCYCLIC COMPOUND” (NISSAN CHEMICAL CORPORATION, priority 2020, published 2024).)
